This assay has as its target JNK1 (Homo sapiens, UniProt P45983). Briefly: JNK1 kinase DELFIA (phosphorylation of biotinylated GST-ATF2). Format: biochemical. Here is the method:
Before initiation of kinase reactions, compounds were pre-incubated with the enzyme for 10 minutes. Pre-incubation reactions contained 50 mM HEPES pH 7.3, 10 mM MgCl2, 1 mM DTT, 75 mM NaCl, 1 mM EDTA, 1 mM EGTA, 0.01% CHAPS, 2 nM JNK1, 6 ug/mL biotinylated GST-ATF2, 0.1 mg/ml BSA, 5% DMSO and 0-100 μM compound in a total volume of 40 μL. After a 10 minute room temperature pre-incubation, 10 μL of 35 μM ATP was added to start the reaction (final concentration of ATP=7 uM). Reactions were incubated at room temperature for 30 minutes. A small aliquot (10 uL) was taken and quenched by adding into 190 uL of DELFIA Assay buffer containing 100 mM EDTA. The amount of phosphate transferred to biotinylated GST-ATF2 was measured using the Dissociation Enhanced Lanthanide Fluorescence Immuno-assay (DELFIA) from Perkin Elmer according to manufacturers protocol. Briefly, biotinylated GST-ATF2 was captured on streptavidin coated plates for 1 hour, washed twice, then incubated for 1 hour with a 1:1000 dilution of rabbit-anti-phospho-ATF2 antibody and a 1:3500 dilution of Europium-labeled anti-rabbit secondary antibody. Free antibody was removed with six washes, Europium was dissociated from the antibody, and Europium fluorescence was measured using an excitation wavelength of 340 nm and an emission wavelength of 615 nm. JNK2 and JNK3 kinase reactions were carried out similarly, with the exception that the final concentration of ATP was 4 uM and 2 uM, respectively.

Where [1] appears, read: DELFIA, 2 nM JNK1, final ATP 7 uM, 10 min pre-incubation, reported as range for a group.

Values joined by “and” are separate entries in the source; they are usually repeats but may differ in a detail not shown here. Equal entries are not always repeated. Where two headings read alike, the source gives them in different places.

Sequence of JNK1 (P45983 whole entry, species assumed): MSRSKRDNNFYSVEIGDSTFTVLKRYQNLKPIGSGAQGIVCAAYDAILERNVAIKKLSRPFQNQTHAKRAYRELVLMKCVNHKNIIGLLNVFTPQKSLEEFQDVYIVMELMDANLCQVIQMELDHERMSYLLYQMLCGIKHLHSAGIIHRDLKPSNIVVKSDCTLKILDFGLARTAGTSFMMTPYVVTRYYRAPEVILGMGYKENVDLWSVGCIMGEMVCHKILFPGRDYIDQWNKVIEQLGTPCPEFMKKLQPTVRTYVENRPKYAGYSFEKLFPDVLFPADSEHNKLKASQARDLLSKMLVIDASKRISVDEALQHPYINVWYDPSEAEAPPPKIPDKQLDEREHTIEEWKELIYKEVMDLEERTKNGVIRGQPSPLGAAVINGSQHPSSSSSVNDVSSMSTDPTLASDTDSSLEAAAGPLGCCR

Consider `CC[C@H](C)[C@@H](CO)NC(=O)c1c(-c2ccsc2)nc2c(C(=O)NCc3ccc4nc(N)sc4c3)cccn12` [Compound 46], for which the IC50 under setting [1] fell in the range of 6 to 100 nM.
`CC(C)[C@@H](CO)NC(=O)c1c(-c2ccsc2)nc2c(C(=O)NCc3ccc4nc(N)sc4c3)cccn12` [Compound 47] came in with an IC50 under setting [1] of 6 to 100 nM.
Compound `Nc1nc2ccc(CNC(=O)c3cccn4c(C(=O)N[C@H](CO)C5CCCCC5)c(-c5ccsc5)nc34)cc2s1` [Compound 69] returned an IC50 under setting [1] of 6 to 100 nM.
The compound `CC(C)C[C@@H](CO)NC(=O)c1c(-c2ccsc2)nc2c(C(=O)NCc3ccc4c(c3)OCO4)cccn12` [Compound 94] yielded an IC50 under setting [1] of 6 to 100 nM.
In turn, `CC(C)c1nc2ccc(CNC(=O)c3cccn4c(C(=O)NCC5(O)CCCCC5)c(-c5ccsc5)nc34)cc2[nH]1` [Compound 117] returned an IC50 under setting [1] of 6 to 100 nM.
For `Cc1nc2ccc(CNC(=O)c3cccn4c(C(=O)NCC5(O)CCCCC5)c(-c5ccsc5)nc34)cc2[nH]1` [Compound 118], the IC50 runs as follows: under setting [1], 6 to 100 nM; (read-out: JNK 1 IC50) 23 nM.
On to `CCc1nc2c(C(=O)NCc3ccc4nc(C)sc4c3)cccn2c1C(=O)N[C@H](CO)CC(C)C` [Compound 131], for which the IC50 under setting [1] was 6 to 100 nM.
The same measure, in the same setting: the figure for `Cc1nc2cc(CNC(=O)c3cccn4c(C(=O)N[C@H](CO)CC(C)C)c(-c5ccsc5)nc34)ccc2n1C` [Compound 139] is 6 to 100 nM and 6 to 20 nM; for `CC(C)C[C@@H](CO)NC(=O)c1c(-c2ccsc2)nc2c(C(=O)NCc3cnc4nc(N)sc4c3)cccn12` [Compound 150] it is 6 to 100 nM; for `CNc1nc2ccc(CNC(=O)c3cccn4c(C(=O)N[C@H](CO)CC(C)C)c(-c5ccccn5)nc34)cc2s1` [Compound 156] it is 6 to 20 nM.
The same measure, in the same setting: the figure for `CC(C)C[C@@H](CO)NC(=O)c1c(-c2ccsc2)nc2c(C(=O)NCc3ccc(C(F)(F)F)nc3)cccn12` [Compound 209] is 6 to 100 nM; for `CC(C)C[C@@H](CO)NC(=O)c1c(-c2ccsc2)nc2c(C(=O)N[C@H](C)c3ccc(O)cc3)cccn12` [Compound 213] it is 6 to 100 nM; for `CC(C)C[C@@H](CO)NC(=O)c1c(-c2ccsc2)nc2c(C(=O)NCc3cnn(-c4cccc(C(F)(F)F)c4)c3)cccn12` [Compound 224] it is 6 to 100 nM.
Take `O=C(NCc1ccc2c(c1)OCO2)c1cccn2c(C(=O)N[C@H](CO)c3ccccc3)c(-c3ccsc3)nc12` [Compound 238]: the IC50 under setting [1] lay within 6 to 100 nM.
On to `CSCC[C@@H](CO)NC(=O)c1c(-c2ccsc2)nc2c(C(=O)NCc3ccc(S(C)(=O)=O)cc3)cccn12` [Compound 242], for which, under setting [1], the IC50 lay within 6 to 100 nM.
`COc1ccc(-c2cc(CNC(=O)c3cccn4c(C(=O)N[C@H](CO)CC(C)C)c(-c5ccsc5)nc34)no2)cc1` [Compound 274] displayed an IC50 under setting [1] of 6 to 100 nM.
The same measure, in the same setting: the figure for `CC(C)C[C@@H](CO)NC(=O)c1c(-c2ccsc2)nc2c(C(=O)NCc3ccc4[nH]ncc4c3)cccn12` [Compound 277] is 6 to 100 nM and 6 to 20 nM; for `Nc1nc2ccc(CNC(=O)c3cccn4c(C(=O)N[C@@H]5c6ccccc6C[C@@H]5O)c(-c5ccsc5)nc34)cc2s1` [Compound 279] it is 6 to 100 nM; for `CCCC[C@@H](CO)NC(=O)c1c(-c2ccsc2)nc2c(C(=O)NCc3ccc4nc(N)sc4c3)cccn12` [Compound 280] it is 6 to 100 nM.
As to `Nc1nc2ccc(CNC(=O)c3cccn4c(C(=O)NC5CCCC5CO)c(-c5ccsc5)nc34)cc2s1` (stereo not shown) [Compound 283], the IC50 under setting [1] lay within 6 to 100 nM.
`Nc1nc2ccc(CNC(=O)c3cccn4c(C(=O)N[C@@H](CO)CC5CC5)c(-c5ccsc5)nc34)cc2s1` [Compound 285]: the IC50 under setting [1] fell in the range of 6 to 100 nM.
Still for that read-out and setting: the figure for `CC(C)C[C@@H](CO)NC(=O)c1c(-c2ccsc2)nc2c(C(=O)NCc3ccc(NC4CCCC4)nc3)cccn12` [Compound 292] is 6 to 100 nM.
The same measure, in the same setting: the figure for `CC(C)C[C@@H](CO)NC(=O)c1c(-c2ccsc2)nc2c(C(=O)NCc3ccc(N4CCCCCC4)nc3)cccn12` [Compound 298] is 6 to 100 nM.
The same measure, in the same setting: the figure for `CC(C)C[C@@H](CO)NC(=O)c1c(-c2ccsc2)nc2c(C(=O)NCc3ccc(-c4ccccc4)nc3)cccn12` [Compound 305] is 6 to 100 nM.

As usually defined, the IC50 is the concentration needed to halve the response being measured.

The record behind these values is US20100298314A1, “NOVEL JNK INHIBITORS” (Schering Corporation, priority 2006, published 2010).
